Data: patent publication US7365083B2, “Amide derivatives as NMDA receptor antagonists” (Richter Gedeon Vegyeszeti Gyar Rt., priority 2000, dated 2008)
Read-outs that look alike come from different tables or passages of the source.

Tests used:
Assay type in all cases: cell-based
NR1a/NR2A receptors = target: T1, NR1a/NR2A receptors (Rattus norvegicus, UniProt Q00959); experiment: NMDA antagonist potency on HEK cells transiently transfected with NR1a/NR2A subunits, patch clamp method; details: HEK293, 15 μM test concentration, 100 μM NMDA, -70 mV, read-out: NR1/NR2A % Inhibition of NMDA Ca2+-response 15 μM
T1 construct: expressed in transfected cells; host or cells: HEK293, transient expression
Experimental: (§1) Genes cloned according to published sequences [gi508809 (rat NR1a), gi205738 (rat NR2B), gi2905805 (rat NR2A)] were inserted into inducible mammalian expression vectors bearing different resistance genes (hygromycine in case of NR1a or neomycine in case of NR2 subunits). The vector constructs were introduced into HEK293 cells using a cationic lipid-mediated transfection method. Protein expression was induced by 3 μM MuristeronA. Cells were maintained in the presence of 365 μM ketamine for 48-72 hours under an atmosphere of 95% air-5% CO2 at 37° C. before the experiments.
Assessment of NMDA Antagonist Potency on Cells Transfected with NR1a/NR2A Subunits—Patch Clamp Method
Cells transiently expressing NR1a/NR2A receptors and grown onto coverslips were used in patch clamp experiments. Whole-cell patch clamp recording was done according to the standard technique. Cell cultures were constantly superfused with an extracellular solution (140 mM NaCl, 5 mM KCl, 5 mM Hepes, 5 mM Na-Hepes, 2 mM CaCl2, 20 mM glucose, 10 μM glycine, pH 7.35) at room temperature. Patch pipettes with resistance between 3 and 6 MΩ were filled with an intracellular solution (140 mM CsCl, 11 mM EGTA, and 10 mM Hepes, pH 7.3). The inward current elicited by 100 μM NMDA was recorded from cells voltage clamped at −70 mV. Compounds were applied via a multibarrel ejection device controlled by electromagnetic valves. First NMDA was repeatedly administered until stabilization of responses, then it was given in the presence of the test compound. The degree of inhibition—expressed as percentage—was calculated from the peak currents evoked by NMDA in the presence and absence of the test compound. Selectivity ratio (NR2B/NR2A), was calculated as the ratio of test dose on NR1/2A transfected cells and IC50 value of NMDA antagonism on NR1/NR2B expressing cells.

NMDA receptors = target: T2, NMDA receptors (Rattus norvegicus, UniProt P35439+Q00960); experiment: NMDA antagonist potency in vitro by measurement of intracellular calcium concentration with a plate reader fluorimeter, primary neocortical cell cultures
T2 construct: primary neocortical cell cultures derived from 17 day old Charles River rat embryos; endogenous in cells; host or cells: primary neocortical neurons from 17 day old rat embryos, 4-7 days in vitro
Source text: It is known that during postnatal development the subunit composition of neuronal NMDA receptors is changing. […] Since NMDA receptors are known to be permeable to calcium ions upon excitation, we characterized the NMDA receptor activation by measurement of rise in intracellular calcium concentration following the agonist (NMDA) application to the cells.
Assessment of NMDA Antagonist Potency In Vitro by Measurement of Intracellular Calcium Concentration with a Plate Reader Fluorimeter
The cultures were used for the intracellular calcium measurements after 4-7 days in vitro. […] To stop the loading the cells were washed twice with the solution used for the measurement (140 mM NaCl, 5 mM KCl, 2 mM CaCl2, 5 mM HEPES, 5 mM HEPES-Na, 20 mM glucose, 10 μM glycine, pH=7.4). After washing the test compounds were added to the cells in the above solution (90 μl/well). Intracellular calcium measurements were carried out with a plate reader fluorimeter: elevation of Fluo-4-fluorescence and so, intracellular calcium was induced by application of 40 μM NMDA. Inhibitory potency of the test compounds was assessed by measuring the reduction in the calcium elevation in the presence of different concentrations of the compounds. After the measurement a standard calibration procedure with slight modifications was used to convert the fluorescent data to calcium concentration values [Meth. Cell.
Dose-response curves and IC50-values were calculated by using data derived from at least three independent experiments. Inhibitory potency of a compound at a single concentration point was expressed as percent inhibition of the NMDA response. Sigmoidal concentration-inhibition curves were fit to the data and IC50 values were determined as the concentration that produces half of the maximal inhibition caused by the compound.

NR1a/NR2B receptors = target: T3, NR1a/NR2B receptors (Rattus norvegicus, UniProt P35439+Q00960); experiment: NMDA antagonist potency on HEK293 cells stably expressing NR1a/NR2B subunits, fluorimetric method; details: for IC50: HEK293 cells stably expressing NR1a/NR2B, intracellular calcium, plate reader fluorimeter, means of 3 experiments, read-out: NR1/NR2B IC50
T3 construct: expressed in transfected cells
Experimental: as §1
Assessment of NMDA Antagonist Potency on Cells Transfected with NR1a/NR2B Subunits—Fluorimetric Method
For establishment of cell clones stably expressing NR1a/NR2B receptors, transfected cells were exposed to the selecting antibiotics for 4 weeks then resistant clones were grown up. The expression of NR2B subunit protein was verified by a flow cytometry based immunocytochemical method. Positive clones were further tested for functional activity in patch clamp experiments. […] Induction of protein expression and maintenance of cells were the same as described above.
The cells were plated onto standard 96-well microplates. A plate reader-based fluorometric assay was used to measure NMDA antagonism. The method was essentially similar to that described above for testing primary cultures of rat cortical neurons.

[1] = rat primary neocortical cultures, 4-7 days in vitro, calcium elevation induced by 40 μM NMDA, Fluo-4, read-out: NMDA IC50

T3 sequence (Q00960 27-1482, other chains not shown): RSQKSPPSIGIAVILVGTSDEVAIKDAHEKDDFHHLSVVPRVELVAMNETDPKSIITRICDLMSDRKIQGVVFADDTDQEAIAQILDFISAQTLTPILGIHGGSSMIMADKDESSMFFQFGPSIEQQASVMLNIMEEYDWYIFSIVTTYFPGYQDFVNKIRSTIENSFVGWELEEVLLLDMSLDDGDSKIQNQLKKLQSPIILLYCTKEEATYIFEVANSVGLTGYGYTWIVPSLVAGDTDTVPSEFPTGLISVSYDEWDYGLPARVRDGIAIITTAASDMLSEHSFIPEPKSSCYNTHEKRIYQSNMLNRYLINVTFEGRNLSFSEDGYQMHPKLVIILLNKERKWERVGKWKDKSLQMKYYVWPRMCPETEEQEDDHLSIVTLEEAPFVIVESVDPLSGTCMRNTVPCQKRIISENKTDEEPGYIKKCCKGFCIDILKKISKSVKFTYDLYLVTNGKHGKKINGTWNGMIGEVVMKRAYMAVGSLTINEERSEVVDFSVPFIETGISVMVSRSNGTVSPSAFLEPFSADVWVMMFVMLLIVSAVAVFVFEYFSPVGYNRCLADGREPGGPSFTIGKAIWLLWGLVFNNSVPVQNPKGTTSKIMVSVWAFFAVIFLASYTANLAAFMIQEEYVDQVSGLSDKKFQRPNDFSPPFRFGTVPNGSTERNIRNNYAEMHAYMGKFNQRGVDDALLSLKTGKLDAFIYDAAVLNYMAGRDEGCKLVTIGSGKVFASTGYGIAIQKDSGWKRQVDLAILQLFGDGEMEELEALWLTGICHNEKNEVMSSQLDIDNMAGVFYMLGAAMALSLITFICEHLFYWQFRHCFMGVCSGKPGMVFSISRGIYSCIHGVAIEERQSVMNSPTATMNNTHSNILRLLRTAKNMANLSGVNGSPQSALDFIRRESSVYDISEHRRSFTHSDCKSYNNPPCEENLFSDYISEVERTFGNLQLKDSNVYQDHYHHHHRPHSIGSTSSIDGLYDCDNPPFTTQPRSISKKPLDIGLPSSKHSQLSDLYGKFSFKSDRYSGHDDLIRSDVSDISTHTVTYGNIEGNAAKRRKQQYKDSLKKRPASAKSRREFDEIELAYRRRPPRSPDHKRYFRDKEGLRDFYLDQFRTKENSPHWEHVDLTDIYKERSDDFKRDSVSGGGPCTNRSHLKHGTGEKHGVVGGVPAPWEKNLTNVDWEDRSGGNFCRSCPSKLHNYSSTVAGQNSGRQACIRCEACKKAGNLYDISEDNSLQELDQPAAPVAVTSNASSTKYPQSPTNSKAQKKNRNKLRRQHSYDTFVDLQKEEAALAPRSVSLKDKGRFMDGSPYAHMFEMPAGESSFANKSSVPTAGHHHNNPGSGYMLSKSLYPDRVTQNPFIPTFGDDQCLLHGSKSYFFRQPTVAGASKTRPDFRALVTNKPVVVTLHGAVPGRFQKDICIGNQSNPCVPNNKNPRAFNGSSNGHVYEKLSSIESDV
T2 sequence (Q00960 27-1482, other chains not shown): as above
T1 sequence (Q00959 20-1464 limits assumed): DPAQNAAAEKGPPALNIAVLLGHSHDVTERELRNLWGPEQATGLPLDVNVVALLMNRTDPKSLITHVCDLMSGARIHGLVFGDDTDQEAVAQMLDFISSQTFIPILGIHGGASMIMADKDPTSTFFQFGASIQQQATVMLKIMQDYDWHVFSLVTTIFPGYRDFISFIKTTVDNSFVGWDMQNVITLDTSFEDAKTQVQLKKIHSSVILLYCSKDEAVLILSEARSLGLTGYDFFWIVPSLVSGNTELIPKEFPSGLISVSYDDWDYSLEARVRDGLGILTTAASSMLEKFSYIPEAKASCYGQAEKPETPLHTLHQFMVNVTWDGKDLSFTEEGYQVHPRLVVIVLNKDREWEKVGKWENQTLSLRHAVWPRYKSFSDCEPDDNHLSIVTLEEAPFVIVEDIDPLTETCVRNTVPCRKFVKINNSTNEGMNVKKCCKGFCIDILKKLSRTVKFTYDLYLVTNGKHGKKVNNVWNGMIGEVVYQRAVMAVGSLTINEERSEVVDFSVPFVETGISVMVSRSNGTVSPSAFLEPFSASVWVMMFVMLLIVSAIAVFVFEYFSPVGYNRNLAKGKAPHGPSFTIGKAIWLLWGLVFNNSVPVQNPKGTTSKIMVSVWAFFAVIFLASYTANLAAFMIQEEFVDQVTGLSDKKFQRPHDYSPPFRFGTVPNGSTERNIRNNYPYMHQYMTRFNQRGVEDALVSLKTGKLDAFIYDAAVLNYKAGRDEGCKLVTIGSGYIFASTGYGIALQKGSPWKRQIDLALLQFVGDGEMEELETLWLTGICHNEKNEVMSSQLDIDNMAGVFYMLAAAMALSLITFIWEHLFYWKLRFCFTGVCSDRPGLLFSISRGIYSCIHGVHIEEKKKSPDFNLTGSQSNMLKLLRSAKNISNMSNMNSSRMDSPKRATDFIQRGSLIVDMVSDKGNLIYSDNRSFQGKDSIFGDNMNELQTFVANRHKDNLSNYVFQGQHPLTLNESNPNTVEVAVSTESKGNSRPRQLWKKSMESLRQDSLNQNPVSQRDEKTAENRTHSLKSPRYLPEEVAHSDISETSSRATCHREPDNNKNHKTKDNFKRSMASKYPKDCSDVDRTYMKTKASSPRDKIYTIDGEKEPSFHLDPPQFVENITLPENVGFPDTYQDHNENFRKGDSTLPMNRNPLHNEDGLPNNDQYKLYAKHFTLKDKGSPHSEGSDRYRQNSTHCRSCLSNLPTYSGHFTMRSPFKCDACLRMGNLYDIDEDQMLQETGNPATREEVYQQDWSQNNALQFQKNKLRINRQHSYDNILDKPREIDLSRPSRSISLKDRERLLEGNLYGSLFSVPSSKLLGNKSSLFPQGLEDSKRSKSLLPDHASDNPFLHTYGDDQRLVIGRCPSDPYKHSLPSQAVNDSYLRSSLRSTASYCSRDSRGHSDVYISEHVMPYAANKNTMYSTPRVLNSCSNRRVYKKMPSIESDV

Compound	IC50 (NMDA receptors; [1]) [nM]	also measured
C[C@@H]([C@@H](O)c1ccc(O)cc1)N1CCC(O)(c2ccccc2)CC1 [CP 101,606, (1S,2S)-1-(4-hydroxyphenyl)-2-(4-hydroxy-4-phenylpiperidine-1-yl)-1-propanol, reference compound]		inhibition at 15 µM (NR1a/NR2A receptors): -8.8%
Oc1ccc(OCCN2CCC(Cc3ccc(F)cc3)CC2)cc1 [Co-111103, 1-[2-(4-hydroxyphenoxy)ethyl]-4-(4-fluorobenzyl)piperidine, reference compound]	60	
O=C(c1cc2ccc(O)cc2[nH]1)N1CCC(Cc2ccc(F)cc2)CC1 [Compound 4513848, 1-[4-(4-Fluorobenzyl)piperidine-1-yl]-1-(6-hydroxy-1H-indole-2-yl)methanone]	90	
O=C(c1cc2ccc3[nH]ccc3c2[nH]1)N1CCC(Cc2ccccc2)CC1 [Compound 4514305, 1-(4-Benzylpiperidin-1-yl)-1-(1,6-dihydro-1,6-diaza-as-indacene-2-yl)methanone]	392	
Cc1ccc(CC2CCN(C(=O)c3nc4ccc(O)cc4[nH]3)CC2)cc1 [Compound 4570001378, (6-Hydroxy-1H-benzoimidazol-2-yl)-[4-(4-methyl-benzyl)-piperidine-1-yl]-methanone]	9	
O=C(c1cc2cc3[nH]c(=O)oc3cc2[nH]1)N1CCC(Cc2ccccc2)CC1 [Compound 4570001461, 6-(4-Benzylpiperidin-1-carbonyl)-1,5-dihydro-oxazolo[4,5-f]indole-2-one]		IC50 (NR1a/NR2B receptors): 15 nM; inhibition at 15 µM (NR1a/NR2A receptors): 14.9%
O=C(c1cc2cc3[nH]c(=O)oc3cc2[nH]1)N1CCC(OCc2ccccc2)CC1 [Compound 4570001462, 6-(4-Benzyloxypiperidin-1-carbonyl)-1,5-dihydro-oxazolo[4,5-f]indole-2-one]	79	
O=C(c1cc2cc3[nH]c(=O)oc3cc2[nH]1)N1CCC(Cc2ccc(F)cc2)CC1 [Compound 4570001484, 6-[4-(4-Fluorobenzyl)piperidin-1-carbonyl]-1,5-dihydro-oxazolo[4,5-f]indole-2-one]	41	
O=C(c1cc2c(ccc3cn[nH]c32)[nH]1)N1CCC(Cc2ccc(F)cc2)CC1 [Compound 4570001661, [4-(4-Fluorobenzyl)piperidin-1-yl]-(1,6-dihydro-pirrolo[2,3-g]indazol-7-yl)-methanone]	150	
O=C(c1cc2c(ccc3cn[nH]c32)[nH]1)N1CCC(Cc2ccccc2)CC1 [Compound 4570001662, (4-Benzylpiperidin-1-yl)-(1,6-dihydro-pirrolo[2,3-g]indazol-7-yl)-methanone]	58	
O=C(c1cc2c(ccc3[nH]cnc32)[nH]1)N1CCC(Cc2ccc(F)cc2)CC1 [Compound 4570001688, [4-(4-Fluorobenzyl)piperidin-1-yl]-(3,6-dihydro-imidazo[4,5-e]indol-7-yl)methanone]	88	
O=C(c1cc2c(ccc3[nH]ncc32)[nH]1)N1CCC(Cc2ccccc2)CC1 [Compound 4570001689, (4-Benzylpiperidin-1-yl)-(3,6-dihydro-pirrolo[3,2-e]indazol-7-yl)methanone]	20	
O=C(c1cc2c(ccc3[nH]ncc32)[nH]1)N1CCC(Cc2ccc(F)cc2)CC1 [Compound 4570001690, [4-(4-Fluorobenzyl)piperidin-1-yl]-(3,6-dihydro-pirrolo[3,2-e]indazol-7-yl)methanone]	22	
O=C(c1cc2c(ccc3[nH]cnc32)[nH]1)N1CCC(Cc2ccccc2)CC1 [Compound 4570001779, (4-Benzylpiperidin-1-yl)-(3,6-dihydro-imidazo[4,5-e]indol-7-yl)methanone]	50	
O=C(c1nc2c(ccc3oc(=O)[nH]c32)[nH]1)N1CCC(Cc2ccccc2)CC1 [Compound 4570001971, 7-(4-Benzylpiperidin-1-carbonyl)-1,6-dihydro-3-oxa-1,6,8-triaza-as-indacen-2-one]	328	
O=C(c1nc2cc3[nH]c(=O)oc3cc2[nH]1)N1CCC(Cc2ccccc2)CC1 [Compound 4570001972, 6-(4-Benzylpiperidin-1-carbonyl)-3,5-dihydro-imidazo[4′,5′;4,5]benzo[1,2-d]oxazole-2-one]	193	
O=C(c1cc2cc3[nH]c(=O)[nH]c3cc2[nH]1)N1CCC(Cc2ccccc2)CC1 [Compound 4570002045, 6-(4-Benzylpiperidin-1-carbonyl)-3,5-dihydro-1H-imidazo[4,5-f]indole-2-one]	440	
Cc1ccc(OC2CCN(C(=O)c3cc4c(ccc5[nH]ncc54)[nH]3)CC2)cc1 [Compound 4570002260, (3,6-Dihydro-pirrolo[3,2-e]indazol-7-yl)-(4-p-tolyloxypiperidin-1-yl)methanone]	42	IC50 (NR1a/NR2B receptors): 30 nM; selectivity toward NR2B subunit containing NMDA receptors (in words) (NR1a/NR2B receptors; according to the results in Table 2): highly selective; Selectivity (selectivity ratio NR2B/NR2A) (NR1a/NR2B receptors; ratio of test concentration on NR1/NR2A transfected cells and IC50 value on NR1/NR2B expressing cells): >500; inhibition at 15 µM (NR1a/NR2A receptors): 3.3%
Cc1ccc(CC2CCN(C(=O)c3cc4c(ccc5[nH]ncc54)[nH]3)CC2)cc1 [Compound 4570002340, (3,6-Dihydro-pirrolo[3,2-e]indazol-7-yl)-[4-(4-methylbenzyl)piperidin-1-yl]methanone]	127	
O=C(CCN1CCC(Cc2ccc(F)cc2)CC1)c1ccc2[nH]c(=O)oc2c1 [EMD 95885, reference compound]	35	
C[C@@H](CN1CCC(Cc2ccccc2)CC1)[C@@H](O)c1ccc(O)cc1 [Ro 25.6981, R-(R*,S*)-1-(4-hydroxyphenyl)-2-methyl-3-[4-(phenylmethyl)piperidin-1-yl]-1-propanol, reference compound]		IC50 (NMDA receptors): 159 nM
